From patent US20030092197A1, “Proteins, genes and their use for diagnosis and treatment of cardiac response” (priority 2000, published 2003)
Blank lines part the entries; values can stand above or below the compound they belong to.

Key:
[1] = system: Cardiac Response-Associated Features (CRFs) in blood; assay: 2D gel electrophoresis of blood: CRFs differentially expressed in treated vs control animals (fold change); format: in vivo, rat
Description: Using the following procedure, proteins in blood samples from control animals and animals having cardiac response were separated by isoelectric focusing followed by SDS-PAGE and analyzed. Serial samples were taken over time. Parts 6.1.2 to 6.1.15 (inclusive) of the procedure set forth are hereby designated as the “Reference Protocol”
(§1) Cardiac response was induced by treatment with doxorubicin (DX) 1 mg/kg either alone or 30 min after an i.p. injection of dexrazoxane (ICRF) 50 mg/kg as described in the Examples infra. Treatment with ICRF alone was also administered. The treatment comprised of 7 weekly injections and samples were taken within 24 h after the final injection.
Samples from animals treated to induce cardiac reponse or treated with a cardioprotectant can be collected, prepared and analysed as described herein. In the studies provided herein, animals were administered an intravenous injection of either (i) doxorubicin 1 mg/kg alone; (ii) doxorubicin 1 mg/kg 30 min after an i.p. injection of dexrazoxane 50 mg/kg or (iii) treated with dexrazoxane 50 mg/kg alone. Control groups received saline only. 7 weekly injections were administered and samples were collected 24 h after the final injection. Plasma was collected for discovery of novel biomarkers of cardiac damage using 2-D gel electrophoresis and for measurement of cardiac specific troponin T levels. Tissues were collected for histopathological confirmation of cardiac tissue injury.
A protein assay (Pierce BCA Cat # 23225) was performed on each serum sample as received. Prior to protein separation, each sample was processed for selective depletion of certain proteins, in order to enhance and simplify protein separation and facilitate analysis by removing proteins that may interfere with or limit analysis of proteins of interest. See International Patent Application No. PCT/GB99/01742, filed Jun. 1, 1999, which is incorporated by reference in its entirety, with particular reference to the experimental protocol.
Removal of albumin, haptoglobin, transferrin and immunoglobin G (IgG) from blood (“blood depletion”) was achieved by an affinity chromatography purification step in which the sample was passed through a series of ‘Hi-Trap’ columns containing immobilized antibodies for selective removal of albumin, haptoglobin and transferrin, and protein G for selective removal of immunoglobin G. Two affinity columns in a tandem assembly were prepared by coupling antibodies to protein G-sepharose contained in Hi-Trap columns (Protein G-Sepharose Hi-Trap columns (1 ml) Pharmacia Cat. No. 17-0404-01). This was done by circulating the following solutions sequentially through the columns: (1) Dulbecco's Phosphate Buffered Saline (Gibco BRL Cat. No. 14190-094); (2) concentrated antibody solution; (3) 200 mM sodium carbonate buffer, pH 8.35; (4) cross-linking solution (200 mM sodium carbonate buffer, pH 8.35, 20 mM dimethylpimelimidate); and (5) 500 mM ethanolamine, 500 mM NaCl. A third (un-derivatised) protein G Hi-Trap column was then attached to the lower end of the tandem column assembly.
The chromatographic procedure was automated using an Akta Fast Protein Liquid Chromatography (FPLC) System such that a series of up to seven runs could be performed sequentially. The samples were passed through the series of 3 Hi-Trap columns in which the affinity chromatography media selectively bind the above proteins thereby removing them from the sample. Fractions (typically 3 ml per tube) were collected of unbound material (“Flowthrough fractions”) that eluted through the column during column loading and washing stages and of bound proteins (“Bound/Eluted fractions”) that were eluted by step elution with Immunopure Gentle Ag/Ab Elution Buffer (Pierce Cat. No. 21013). The eluate containing unbound material was collected in fractions which were pooled, desalted/concentrated by centrifugal ultrafiltration and stored to await further analysis by 2D PAGE. […]

[2] = system: spontaneous hypertensive rat; assay: Severity of cardiac myocyte histopathologic lesions graded by light microscopy; format: in vivo; details: scale of 0 to 3; 7 weekly injections; doxorubicin 1 mg/kg i.v., dexrazoxane 50 mg/kg i.p.
Description: as §1
Doxorubicin is a marketed anthracycline anticancer drug that causes a serious chronic cardiac toxicity. The spontaneous hypertensive rat is a useful animal model to study this toxicity. Furthermore by incorporating a cardioprotectant in the study design, the association of protein markers with the undesirable cardiotoxicity of the cardiotoxic agent is strengthened. Pretreatment with the intracellular iron chelating compound dexrazoxane (also referred to as ICRF-187) provides significant cardioprotection against clinical doxorubicin-induced cardiotoxicity and the drug has been FDA approved for this indication.
Samples from animals treated to induce cardiac reponse or treated with a cardioprotectant can be collected, prepared and analysed as described herein. […]
The severity of cardiac myocyte histopathologic lesions (cytoplasmic vacuolization and myofibrillar loss) was graded semiquantitatively by light microscopy on a scale of 0 to 3. […] Plasma cardiac troponin T concentrations were measured by chemiluminescent immunoassay. […]

- FC ICRF vs Control ([1]; CRF 28, pI 5.7, MW 26,409 Da, P 0.004): −2.93
- FC ICRF vs Control ([1]; CRF 56, pI 4.9, MW 48,318 Da, P 0.004): 3.12
- FC ICRF vs Control ([1]; CRF 162, P 0.003): −3.47
- average lesion score (cytoplasmic vacuolization and myofibrillar loss) [2]: 0
Compound: C[C@@H](CN1CC(=O)NC(=O)C1)N1CC(=O)NC(=O)C1 [ICRF, dexrazoxane]

- FC DX vs Control ([1]; CRF 2, pI 5.7, MW 12,367 Da, P 0.010): −10.29
- FC DX vs Control ([1]; CRF 4, pI 5.2, MW 15,589 Da, P 1.7E-04): −9.20
- FC DX vs Control ([1]; CRF 6, pI 4.6, MW 34,921 Da, P 1.0E-03): −7.77
- FC DX vs Control ([1]; CRF 9, pI 5.2, MW 15,591 Da, P 1.5E-03): −5.72
- FC DX vs Control ([1]; CRF 10, pI 5, MW 51,899 Da, P 0.007): −6.99
- FC DX vs Control ([1]; CRF 19, pI 5.7, MW 68,576 Da, P 3.7E-04): −5.12
- FC DX vs Control ([1]; CRF 44, pI 5.8, MW 52,589 Da, P 1.1E-03): 4.83
- FC DX vs Control ([1]; CRF 47, pI 4.4, MW 11,368 Da, P 0.010): 6.81
- FC DX vs Control ([1]; CRF 58, pI 6.8, MW 34,063 Da, P 0.003): 5.43
- FC DX vs Control ([1]; CRF 69, pI 5.2, MW 54,619 Da, P 0.005): −3.54
- FC DX vs Control ([1]; CRF 79, pI 6.8, MW 80,678 Da, P 1.6E-04): −4.51
- FC DX vs Control ([1]; CRF 82, pI 7.6, MW 77,393 Da, P 2.9E-04): −9.06
- FC DX vs Control ([1]; CRF 84, pI 4.8, MW 73,524 Da, P 1.1E-03): −8.60
- FC DX vs Control ([1]; CRF 90, pI 5.2, MW 67,336 Da, P 0.005): −3.93
- FC DX vs Control ([1]; CRF 92, pI 6.0, MW 63,037 Da, P 0.006): −8.26
- FC DX vs Control ([1]; CRF 103, pI 5, MW 56,471 Da, P 0.007): −6.02
- FC DX vs Control ([1]; CRF 104, pI 7, MW 53,989 Da, P 0.003): −11.48
- FC DX vs Control ([1]; CRF 112, pI 7.1, MW 47,499 Da, P 0.006): 4.92
- FC DX vs Control ([1]; CRF 115, pI 7.1, MW 38,136 Da, P 2.3E-04): 3.55
- FC DX vs Control ([1]; CRF 118, pI 6.5, MW 33,117 Da, P 3.4E-04): −4.82
- FC DX vs Control ([1]; CRF 122, pI 5.3, MW 24,915 Da, P 0.003): 3.98
- FC DX vs Control ([1]; CRF 127, pI 4.8, MW 23,325 Da, P 0.006): 5.25
- FC DX vs Control ([1]; CRF 129, pI 5.4, MW 17,765 Da, P 0.010): 4.29
- FC DX vs Control ([1]; CRF 130, pI 4.8, MW 14,082 Da, P 0.009): −4.56
- FC DX vs Control ([1]; CRF 131, pI 4.3, MW 11,917 Da, P 0.009): 4.28
- FC DX vs Control ([1]; CRF 134, pI 5.1, MW 51,125 Da, P 0.009): 7.99
- FC DX vs Control ([1]; CRF 135, pI 7.3, MW 85,176 Da, P 1.2E-05): 4.77
- FC DX vs Control ([1]; CRF 142, pI 5.4, MW 105,458 Da, P 0.007): −5.30
- FC DX vs Control ([1]; CRF 144, P 3.7E-04): −3.70
- FC DX vs Control ([1]; CRF 145, P 4.5E-04): 3.68
- FC DX vs Control ([1]; CRF 146, P 6.2E-04): −4.19
- FC DX vs Control ([1]; CRF 147, P 0.002): −4.61
- FC DX vs Control ([1]; CRF 148, P 0.002): −5.11
- FC DX vs Control ([1]; CRF 149, P 0.002): −3.78
- FC DX vs Control ([1]; CRF 150, pI 4.11, MW 47828 Da, P 0.003): −8.39
- FC DX vs Control ([1]; CRF 151, P 0.003): 3.50
- FC DX vs Control ([1]; CRF 152, P 0.003): −3.97
- FC DX vs Control ([1]; CRF 153, P 0.004): −4.57
- FC DX vs Control ([1]; CRF 154, pI 7.79, MW 55965 Da, P 0.004): 5.39
- FC DX vs Control ([1]; CRF 155, P 0.004): −3.84
- FC DX vs Control ([1]; CRF 156, pI 6.89, MW 78237 Da, P 0.005): −3.99
- FC DX vs Control ([1]; CRF 157, P 0.005): −3.54
- FC DX vs Control ([1]; CRF 158, P 0.005): −4.59
- FC DX vs Control ([1]; CRF 159, P 0.006): 4.04
- FC DX vs Control ([1]; CRF 160, P 0.006): −6.43
- FC DX vs Control ([1]; CRF 161, P 0.006): 4.58
- FC DX vs Control ([1]; CRF 162, P 0.006): −4.37
- FC DX vs Control ([1]; CRF 163, P 0.006): 5.15
- FC DX vs Control ([1]; CRF 164, pI 4.51, MW 72286 Da, P 0.007): 4.75
- FC DX vs Control ([1]; CRF 165, P 0.007): −5.52
- FC DX vs Control ([1]; CRF 166, P 0.008): −3.86
- FC DX vs Control ([1]; CRF 167, P 0.008): 3.77
- FC DX vs Control ([1]; CRF 168, P 0.009): 4.20
- average lesion score (cytoplasmic vacuolization and myofibrillar loss) [2]: 2.1
Compound: COc1cccc2c1C(=O)c1c(O)c3c(c(O)c1C2=O)C[C@@](O)(C(=O)CO)C[C@@H]3O[C@H]1C[C@H](N)[C@H](O)[C@H](C)O1 [DX, doxorubicin]
